# “And” between values parts separate entries of the source, which are not always exact repeats. Identical values can stand only once. Like-named read-outs stand apart in the source and are kept apart here.
# Experiments:
# [1] = tested on: P. falciparum multidrug-resistant strains; test: SYBR Green growth assay, summary over panel of resistant strains; type: cell-based; conditions: Plasmodium falciparum
# Procedure: (§1) Healthy blood samples for parasite culture were obtained from voluntary donors (approved under protocol #28176720.9.0000.0011), processed to remove white blood cells, and stored at 2 °C–8 °C for up to 15 days. Parasite strains SB1-A6, 7G8, V1/S, and HB3 were acquired from BEI-MR4, while the ATQ R1 strain, carrying a V259L gene mutation, was generated in-house. Infected erythrocytes were cultured in RPMI 1640 medium supplemented with Hepes, sodium bicarbonate, glucose, Albumax, and gentamicin, […], and incubated in a 5% CO2, 5% O2, and 90% N2 gas mixture at 37 °C with daily medium changes. Parasitemia was monitored using Giemsa-stained blood smears.
# Bioassays were conducted with synchronized ring-stage parasites using sorbitol synchronization. Antimalarial compounds were evaluated in 96-well plates, and parasite growth was assessed using a SYBR Green-based fluorescence assay The assays were conducted when the parasite quantity reached at least 70% of the ring stage. […]
# To assess parasite growth, the culture medium was replaced with a lysis solution (Trisbase: 49.31%, EDTA: 30.00%, Saponin: 0.16%, Triton: 0.02%) containing the fluorescent dye SYBR Green (Sigma). […] The IC50 values were determined using concentration–response curves generated in GraphPad 8 software. […]
# P. falciparum 7G8 strain = test: SYBR Green growth assay, asexual blood stages, 7G8 strain; type: cell-based, Plasmodium falciparum; conditions: for IC50: Plasmodium falciparum
# Procedure: as §1
# (§2) Bioassays were conducted with synchronized ring-stage parasites using sorbitol synchronization. Antimalarial compounds were evaluated in 96-well plates, and parasite growth was assessed using a SYBR Green-based fluorescence assay The assays were conducted when the parasite quantity reached at least 70% of the ring stage. Compounds were initially added at specific concentrations in the first wells, followed by serial dilution (1:2) ranging from 20 μM to 0.009 μM. Subsequently, a solution containing parasites in RPMI medium at a hematocrit of 2% was added to each well, and the parasites were then incubated for 72 h.
# (§3) To assess parasite growth, the culture medium was replaced with a lysis solution (Trisbase: 49.31%, EDTA: 30.00%, Saponin: 0.16%, Triton: 0.02%) containing the fluorescent dye SYBR Green (Sigma). After a 30 min incubation, fluorescence readings were taken to determine the 50% inhibitory concentration (IC50) of parasite growth. The IC50 values were determined using concentration–response curves generated in GraphPad 8 software. Additionally, the resistance index was calculated by comparing IC50 values obtained for the sensitive 3D7 strain with those of the resistant strains.
# P. falciparum HB3 strain = test: SYBR Green growth assay, asexual blood stages, HB3 strain; type: cell-based, Plasmodium falciparum; conditions: for IC50: Plasmodium falciparum
# Procedure: Parasite strains SB1-A6, 7G8, V1/S, and HB3 were acquired from BEI-MR4, while the ATQ R1 strain, carrying a V259L gene mutation, was generated in-house. […] Parasitemia was monitored using Giemsa-stained blood smears.
# as §2
# The IC50 values were determined using concentration–response curves generated in GraphPad 8 software. Additionally, the resistance index was calculated by comparing IC50 values obtained for the sensitive 3D7 strain with those of the resistant strains.
# [2] = tested on: P. berghei sexual phases in An. stephensi; test: In vivo transmission-blocking assay, P. berghei infected CD1 mice, An. stephensi; parameters: species or system Plasmodium berghei; conditions: 2 doses of 50 mg/kg 12 h apart
# Procedure: For this assay, a colony of An. stephensi was used. The lab-reared An. stephensi was kept under controlled conditions, with a temperature of 26 °C ± 1 °C, a 12/12 h light/dark cycle, a relative humidity of 70% ± 10%, and fed a 30% sugar solution as needed.
# Female CD1 mice (4 to 6 weeks old) were infected by intraperitoneal inoculation (i.p.) containing 10 million erythrocytes infected with P. berghei expressing the GFP fluorescent protein. After 4 days, when parasites in the sexual stages were detected via Giemsa-stained blood smears, mice with similar gametocytemia and parasitemia were randomly divided into three groups of two animals each. The groups of two mices were treated orally with compound 1 at two doses of 50 mg/kg, spaced 12 h apart. […] Following the second dose, mice were anesthetized and placed in individual cages containing approximately 50 female A. stephensi mosquitoes, which had been starved for 24 h before the assay. Blood feeding lasted for 30 min, after which unfed mosquitoes were removed. Engorged females were maintained in an insectary at 21 ± 1 °C and 60% relative humidity, receiving a 30% glucose solution.
# A group of 10 mosquitoes was set aside to assess sporozoite development in salivary glands, following a protocol similar to the one described previously, with dissections performed 21 days postblood meal. Additionally, 10 μL of mouse blood was collected immediately after treatment with the compounds and incubated at room temperature for 15 min. Exflagellation was observed under optical microscopy to evaluate the effect of 4-quinolone-derived molecules on microgametocyte activity.
# [3] = tested on: P. falciparum V1/S strain; test: microbe, parasite or virus in culture; type: cell-based, Plasmodium falciparum; conditions: for IC50: Plasmodium falciparum
# Procedure: as §1, §2, §3
# [4] = tested on: Plasmodium over mammalian cells; conditions: specificity for Plasmodium over mammalian cells; previous studies; cited from earlier work
# [5] = Mitochondrial toxicity, HepG2 cells cultured in glucose or galactose (resazurin); type: cell-based; conditions: human, 3.125–50 μM, read-out: cell viability
# Procedure: To evaluate mitochondrial toxicity, HepG2 cells were cultured in RPMI-1640 medium under two metabolic conditions: one group was maintained in standard RPMI supplemented with 2 g/L glucose (glucose condition), while the second group was gradually adapted to rely on galactose as the primary energy source. For this adaptation, glucose levels were reduced by 20% every 2 days until reaching a final concentration of 20% of the original glucose amount. On the day of the assay, the […] cells were cultured in glucose-free RPMI medium supplemented with 10 mM galactose. When cells reached 80% confluence, they were detached using 2 mL of trypsin-EDTA solution (0.2 g of EDTA) for 5 min at 37 °C, then resuspended in fresh medium and centrifuged at 100 × g for 1 min. After centrifugation, cells were counted using a Neubauer chamber and seeded at […] per well in 96-well plates containing 180 μL of culture medium. Plates were incubated at 37 °C with 5% CO2 for 12–16 h to allow for cell adhesion. […] After treatment, 40 μL of a 0.15 mg/mL resazurin solution (RSZ) was added to each well and incubated for an additional 5 h. RSZ is a nontoxic, cell-permeable blue dye that is reduced by metabolically active cells to highly fluorescent pink resorufin. Fluorescence was measured using a fluorimeter with excitation/emission at 560/590 nm. Cell viability was calculated relative to untreated controls (set at 100%), determined using GraphPad Prism 8.
compound,measurement,setting,value
"CCCCCCCCCCCc1cc(=O)c2ccccc2[nH]1 [compound 1, 2-Undecilquinolin-4(1H)-one]",IC50,"[1]; HB3, read-out: IC50 values",60 to 800 nM
same,IC50,"[1]; TM90C6B, read-out: submicromolar activity",290 to 790 nM
same,IC50,"P. falciparum 7G8 strain; 7G8, strain assigned by order of panels, read-out: IC50 (Figure S1)",200 nM
same,IC50,"P. falciparum 7G8 strain; 7G8 strain, 72 h, read-out: IC50",270 ± 10 nM
same,RI (resistance index),P. falciparum 7G8 strain; ratio of IC50 7G8 to 3D7,1.3
same,IC50,"P. falciparum HB3 strain; HB3, strain assigned by order of panels, read-out: IC50 (Figure S1)",260 nM
same,IC50,"P. falciparum HB3 strain; HB3 strain, 72 h, read-out: IC50",430 ± 50 nM
same,RI (resistance index),P. falciparum HB3 strain; ratio of IC50 HB3 to 3D7,2.1
same,Prevalence of infection in An. stephensi mosquitoes (Positive),[2],70%
same,reduction in the infection rate (salivary glands),[2]; 21 days postinfection,91%
same,reduction in the number of P. berghei sporozoites (in vivo),"[2]; 21 days postinfection, 50 mg/kg","91,30% and 91%"
same,reduction in male exflagellation centers (in vivo),"[2]; blood at mosquito feeding, 50 mg/kg","85,17% and 85%"
same,IC50,[3]; 72 h,800 ± 100 nM
same,IC50,[3]; read-out: IC50 (Figure S1),700 nM
same,RI (resistance index),[3]; ratio of IC50 V1S to 3D7,4.0
same,selectivity index (SI),[4],> 120
same,viability at 24 h,"[5]; HepG2 cells adapted to galactose, HepG2 in galactose",< 0.5%
same,viability at 24 h,"[5]; HepG2 cells cultured in glucose, HepG2 in glucose",> 50%

# — article PMC12631437, “Evaluation of the Activity of 4‑Quinolones against Multi-Life Stages of Plasmodium spp” (ACS Omega, 2025)
